Data reported in EPA's ToxValDB 9.5 (doi:10.2903/j.efsa.2016.4518).

Columns and labels:
[1] = tested on: Tagia sp.; details: chronic/long-term; duration: 56 days; mortality
[2] = tested on: Canidae; details: oral, Dog Other, hematological
[3] = tested on: Anas platyrhynchos; details: reproductive; duration: 20 weeks
[4] = tested on: Pimephales promelas; details: chronic/long-term; duration: 264 days; other
[5] = tested on: Apis mellifera; details: acute, mortality
[6] = tested on: Rattus norvegicus
[7] = tested on: Colinus virginianus; details: acute, oral, mortality
[8] = tested on: Bibionidae; details: chronic/long-term; duration: 28 days
[9] = tested on: Hypoaspis aculeifer; details: chronic/long-term; duration: 21 days; mortality
[10] = tested on: Poecilus cupreus; test: LR50; higher = less toxic; details: not reported; duration: 19 days; mortality
[11] = tested on: Typhlodromus pyri; test: LR50; higher = less toxic; details: not reported; duration: 7 days; mortality

`CON(C)C(=O)Nc1ccc(Cl)c(Cl)c1` [Linuron] was tested, and the NOEC [1] was 6.78 mg/kg, the NOAEL ([2]; chronic, duration: 1 years) was 0.9 mg/kg-day and the NOAEL ([2]; subchronic, duration: 90 days) was 0.9 mg/kg-day. For the same compound, the NOAEL [3] was 13.9 mg/kg-day, the NOEC [4] was 97 µg/L and the LD50 ([5]; dermal) was over 97.8 µg/piece. It also gave an LD50 ([5]; oral, unspecified) of over 112 µg/piece, an LD50 ([6]; acute, oral, mortality) of 1000 mg/kg and an LOAEL ([6]; chronic, duration: 2 years, other) of 1.3 mg/kg-day. For the same compound, the NOAEL ([6]; reproduction developmental, body weight) was 0.8 mg/kg-day, the LD50 ([7]; diet) was 121 mg/kg-day and the LD50 [7] was 314 mg/kg-day. It also gave an NOEC [8] of 9.5 mg/kg, an NOEC [9] of 3.39 mg/kg and an LR50 [10] of over 927 g/ha. It also gave an LR50 [11] of 42.7 g/ha.
